Source: patent publication US20260306491A1, “EGFR INHIBITOR FOR TREATING CANCERS COMPRISING ATYPICAL EGFR MUTATIONS” (ORIC Pharmaceuticals, Inc., priority 2023, published 2026)

Experiment: Phase 1 relative bioavailability of capsule and tablet in healthy subjects: safety
Format: in vivo, human
Method: A Phase 1, open-label, single dose study was conducted in healthy human subjects to evaluate the relative bioavailability of two formulations of Compound I. The first formulation of Compound I (Treatment A) was in the form of a capsule comprising about 15 mg of Compound I in the form of a hemifumarate, while the second formulation of Compound I (Treatment B) was in the form of a tablet comprising about 10 mg of Compound I in the form of a malonate and pharmaceutically acceptable excipients. The primary objective of the study was to evaluate the relative bioavailability (BA) of Treatment A and Treatment B administered as a single oral dose under fasting conditions in healthy adult subjects. A secondary objective was to evaluate the safety and tolerability of single dose administration of Compound I Treatment B under fasting conditions. The endpoints of the study were AUC0-last, AUC0-24, AUC0-inf, AUC % extrap, Cmax, Tmax, Kel, t½, CL/F, and Vz/F for Treatment A and Treatment B. The endpoints also included Aetl-t2, Ae, CLr, Fet1-t2, and Fe from Treatment B in period 2. A secondary endpoint included treatment-emergent AEs (TEAEs), clinical laboratory tests, vital signs, and 12 lead electrocardiogram (ECGs).
Methodology: The study was conducted as an open-label, single-dose study. Screening of subjects occurred within 28 days prior to the first dosing. The study was conducted as a randomized, 2-period, crossover study to assess the relative BA of Treatment A and Treatment B. On Day 1 of Period 1 and of Period 2, a single oral dose of Treatment A or Treatment B were administered under fasting conditions. Blood samples for PK were collected pre-dose and through 216 hours post-dose. Urine samples for PK were collected pre-dose and through 48 hours post-dose from subjects randomized to Period 2 Treatment B (tablets). There was a washout period of at least 10 days between dosing in each period. Safety was monitored throughout the study by repeated clinical and laboratory evaluations. Discontinued subjects were not replaced. All 30 enrolled subjects completed the study and were included in the PK and safety analyses.
60 mg Compound I in the form of Treatment B (6×10 mg tablets) was administered at Hour 0 on Day 1 under fasting conditions along with approximately 240 mL of water after a 10-hour fast. The total duration of participation including the screening period for each subject was approximately 8 weeks. There were 2 periods of approximately 14 days each; washout phase was 10 days between both doses. 60 mg of Compound I in the form of Treatment A (4×15 mg capsules) was administered to subjects at Hour 0 on Day 1 under fasting conditions along with approximately 240 mL of water after a 10-hour fast.
Plasma samples for the analysis of Compound I were collected at the following time points relative to dosing on Day 1 of each period: pre-dose and at 0.5, 1, 2, 3, 4, 5, 6, 7, 8, 10, 12, 16, 24, 36, 48, 72, 96, 120, 144, and 216 hours post-dose. Safety was evaluated by TEAEs, clinical laboratory tests, vital signs, 12 lead ECGs, and physical examinations. An analysis of variance (ANOVA) was performed on the natural log (ln)-transformed AUC0-last, AUC0-inf, and Cmax. The ANOVA model included sequence, treatment, and period as fixed effects, and subject nested within sequence as a random effect, and included calculation of least-squares means (LSMs) as well as the difference between treatment LSMs. Ratios of LSMs were calculated using the exponentiation of the difference between treatment LSMs from the analyses on the In-transformed AUC0-last, AUC0-inf, and Cmax. […] Safety was evaluated by clinical laboratory tests, physical examination, vital signs, 12 lead ECGs, and adverse events (AEs). There was no inferential statistics performed.

[1] = 60 mg single oral, healthy subjects
[2] = 60 mg single oral, healthy subjects (30)
[3] = overall, 60 mg single oral, mild

## C=CC(=O)Nc1cc(Nc2cc(N3OCC[C@@H]3c3cc(F)cc(F)c3)ncn2)c(OC)cc1N1CCC(N2CCN(C3CC3)CC2)CC1 [Compound I, N-[2-[4-(4-cyclopropyl-1-piperazinyl)-1-piperidinyl]-5-[[6-[(3R)-3-(3,5-difluorophenyl)-2-isoxazolidinyl]-4-pyrimidinyl]amino]-4-methoxyphenyl]-2-propenamide]
60 mg single oral (capsule or tablet), fasting, healthy subjects
  Safety and tolerability: generally safe and well tolerated
[1]
  Clinical laboratory tests, vital signs, 12-lead ECG, physical examination: no clinically significant findings or trends
  Deaths, serious adverse events (SAEs), or TEAEs leading to discontinuation: no deaths, serious adverse events (SAEs), or TEAEs leading to subject discontinuation
[2]
  Severe TEAEs: No severe TEAEs were reported
  Subjects reporting TEAEs: 47%
  Subjects reporting TEAEs, number: 14 n
  Subjects with TEAEs of maximum severity mild: 33%
  Subjects with TEAEs of maximum severity mild, number: 10 n
  Subjects with TEAEs of maximum severity moderate: 13%
  Subjects with TEAEs of maximum severity moderate, number: 4 n
  Subjects with TEAEs related to the study drug: 40%
  Subjects with TEAEs related to the study drug, number: 12 n
[3]
  Constipation (TEAE): 10%
  Constipation (TEAE), number of subjects: 3 n
  Dry skin (TEAE): 10%
  Dry skin (TEAE), number of subjects: 3 n
  Epistaxis (TEAE): 10%
  Epistaxis (TEAE), number of subjects: 3 n
  Papular rash (TEAE): 10%
  Papular rash (TEAE), number of subjects: 3 n
